Measurements as given in US8067441B2, “Use of collismycin and derivatives thereof as oxidative stress inhibitors” (Neuropharma, S.A., priority 2005, dated 2011).

What was measured:
Format in all cases: cell-based
[1] = test system: SH-SY5Y human neuroblastoma cells; test: Protection against 6-OHDA-induced cell death, condition A (2 h preincubation, 10% serum); settings: 6-OHDA 75 μM, 16 h, medium with 10% foetal bovine serum
Text: (§1) The aim of this experiment is to determine the protective effect of the compounds of formula (I) against the toxicity caused by 6-hydroxydopamine (6-OHDA). This toxin induces a cell death similar to which occurs in Parkinson's disease, destroying dopaminergic neurons (“MPTP and 6-hydroxydopamine-induced neurodegeneration as models for Parkinson's disease: neuroprotective strategies”; Grunblatt E, et al.; J Neurol. 2000 April; 247 Suppl 2:1195-102).
(§2) Cells are exposed to the treatment with 6-OHDA and, finally, cell death is measured by LDH quantification. As positive control we used NAC. The assay is performed in two different experimental conditions:
A) NAC and the compound of formula (I) are preincubated during 2 hours before the treatment with 6-OHDA 75 μM during 16 hours. The assay is performed in medium containing 10% Foetal bovine serum.

[2] = test system: SH-SY5Y human neuroblastoma cells; test: Protection against hydrogen peroxide-induced cell death (LDH); settings: 1 h preincubation, H2O2 100 μM, 24 h
Experimental: The aim of this assay is to determine the neuroprotective effect of the compounds of formula (I), when human neuroblastoma cells are exposed to oxidative stress induced by hydrogen peroxide, which is highly deleterious to the cell and its accumulation causes oxidation of cellular targets such as DNA, proteins, and lipids leading to mutagenesis and cell death.
SH-SY5Y human neuroblastoma cells are seeded into 96-well culture plate at a density of 10^4 cells/well. Cells are exposed to the different concentrations of the compound one hour before the treatment with H2O2 100 μM during 24 h. 5 mM NAC, a known anti-oxidant agent was used as a positive control, and preincubated 1 hour before the treatment with H2O2. After 24 h, the medium is removed and cells attached to the bottom of the well are lysed by adding 50 μl of Triton X-100 1% in Krebs-Hepes during 5 minutes at room temperature.
Cell survival was determined in parallel in the same assay.

[3] = test system: SH-SY5Y human neuroblastoma cells; test: Protection against 6-OHDA-induced cell death, condition B (1 h preincubation, no serum); settings: 6-OHDA 50 μM, 24 h, medium without fetal bovine serum
Text: as §1, §2
B) NAC and the compound of formula (I) are preincubated during 1 hour before the treatment with 6-OHDA 50 μM during 24 hours. The assay is performed in medium without any fetal bovine serum.

SMILES: COc1cc(/C=N/O)nc(-c2ccccn2)c1 [Caerulomycin A]
- minimum concentration at which neuroprotective [1]: 1 µM
- lowest concentration at which neuroprotective effects were detected [2]: 0.05 µM
- minimum concentration showing neuroprotective effect [3]: 1 µM

SMILES: COc1cc(-c2ccccn2)nc(CO)c1SC [Collismycin C]
- neuroprotective activity against 6-OHDA (concentration not given) [1]: neuroprotective activity
- lowest concentration at which neuroprotective effects were detected [2]: 10 µM
- minimum concentration showing neuroprotective effect [3]: 10 µM

SMILES: CSc1cc(C#N)nc(-c2ccccn2)c1 [Compound 1, 4-Methylsulfanyl-[2,2′]bipyridinyl-6-carbonitrile]
- lowest concentration at which neuroprotective effects were detected [2]: 5 µM

SMILES: O/N=C/c1nc(-c2ccccn2)ccc1F [Compound 2, 5-Fluoro-[2,2′]bipyridinyl-6-carbaldehyde oxime]
- neuroprotective activity against 6-OHDA (concentration not given) [1]: neuroprotective activity
- lowest concentration at which neuroprotective effects were detected [2]: 0.5 µM
- minimum concentration showing neuroprotective effect [3]: 0.5 µM

SMILES: O/N=C/c1nc(-c2cnccn2)ccc1F [Compound 3, 3-Fluoro-6-pyrazin-2-yl-pyridine-2-carbaldehyde oxime]
- neuroprotective activity against 6-OHDA (concentration not given) [1]: neuroprotective activity
- lowest concentration at which neuroprotective effects were detected [2]: 10 µM
